Patent US20090259054A1, “Methods and Compositions for the Treatment of Angiogenesis and Macular Degeneration” (The Texas A&M University System, priority 2008, published 2009)
Several values for one entry are separate records, joined by “and”; a condition that tells them apart may be missing. Identical values can stand only once. Entries after “also recorded” stand apart in the source; their conditions may differ. Like-named read-outs stand apart in the source and are kept apart here.

What was measured:
[1] = test system: HUVEC cells; assay: Flow cytometry / FACS apoptosis (Sub G1, propidium iodide); format: cell-based, human; conditions: 24 hours
Experimental: (§1) About 2×10^6 HUVEC and PC3 cells were treated with different concentrations of GA at 37° C. in a 5% CO2 incubator for 24 hours. The cells were collected and flow cytometry was performed using a FACS Vantage SE DiVa flow cytometer (Becton Dickinson) with propidium iodide staining. The cell population percentages at Sub G1 were defined as apoptotic cells.

[2] = test system: PC3 cells; assay: as above; format: cell-based, human; conditions: 24 hours
Experimental: as §1

[3] = test system: FAK; assay: FAK phosphorylation in HUVEC cells (immunoprecipitation, Western blotting); format: cell-based, human; conditions: HUVEC cells with or without VEGF, GA 1-40 nM, 5 minutes
Experimental: (§2) After starvation in ECGM medium without serum overnight, HUVEC cells were washed with 1×PBS twice, followed with incubation in M199 medium. HUVEC cells were then treated with 1 nM of GA and/or 4 nM of VEGF for 5 minutes, then subjected to immunoprecipitation using anti-VEGFR2 antibody. Anti-phosphotyrosine antibody was used for the detection of phosphorylation of the tyrosine residue of VEGFR2. […] Reaction cocktail containing 100 ng of active VEGFR2 was incubated with different concentrations of GA for 5 minutes at room temperature. Substrate peptide cocktail was added to the pre-incubated reaction cocktail/GA compound. After incubation at room temperature for 30 minutes, stop buffer was added to halt the reaction. 25 μl of each reaction was then transferred with 75 μl dH2O per well into a 96-well streptavidin coated plate and incubated at room temperature for 60 minutes. […] The stop solution was added and the plate was detected at 405 nm. […]
(§3) HUVEC cells pretreated with or without 4 nM VEGF for 5 min were treated with or without different concentrations of GA for another 5 minutes. […] Anti-cleaved caspase 3 antibody (Santa Cruz Biotech) was used for detecting cleaved caspase 3 and polyADP ribose polymerase (PARP) cleavage was detected by an anti-PARP p85 fragment (Promega) in apoptosis assays.

[4] = test system: HUVEC cells; assay: Tube formation assay on Matrigel; format: cell-based, human; conditions: for IC50: Homo sapiens, HUVEC
Experimental: Matrigel (BD Biosciences) were thawed at 4° C. overnight and each well of the prechilled 24-well plates was coated with 100 μl Matrigel and incubated at 37° C. for 45 minutes. HUVEC cells (4×10^4 cells) were added in 1 ml ECGM with various concentrations of gambogic acid. After 12-16 hours of incubation at 37° C., 5% CO2, endothelial cell tube formation was assessed using an OLYMPUS inverted microscope. Tubular structures were quantified by manual counting of low power fields (25×) and percent inhibition was expressed using untreated wells as 100% (t-test, p<0.001).

[5] = test system: HUVEC cells; assay: Western blotting for cleaved caspase 3 and cleaved PARP (apoptosis); format: cell-based, human; conditions: 100 nM GA
Experimental: HUVEC cells pretreated with or without 4 nM VEGF for 5 min were treated with or without different concentrations of GA for another 5 minutes. 200 μg total protein of the cells of each sample was subjected to immunoprecipitation using anti-c-Src, anti-FAK and anti-AKT antibodies (Santa Cruz Biotech) and further subjected to Western blotting. The pTyr-antibody (Santa Cruz Biotech) was used for detecting c-Src phosphorylation and the pFAK397 antibody (Cell Signaling) was blotted for c-Src-associated FAK phosphorylation at […]. In addition, AKT phosphorylation was examined using a pSer473-AKT antibody (Cell Signaling). Anti-cleaved caspase 3 antibody (Santa Cruz Biotech) was used for detecting cleaved caspase 3 and polyADP ribose polymerase (PARP) cleavage was detected by an anti-PARP p85 fragment (Promega) in apoptosis assays.
Several previous studies described gambogic acid (FIG. 1A) activated apoptosis in cancer cells, which partly answered the molecular mechanism of GA's anticancer characters. […] Whole cell proteins of GA treated HUVECs were analyzed by Western blotting with anticleaved caspase 3 and PARP antibodies. […] To investigate if the apoptotic activation effect of GA is different between endothelial cells and cancer cells, we measured the apoptotic populations of HUVECs and human prostate cancer cell PC3 cells treated with GA by flow cytometry FACS assays. […]

[6] = test system: AKT; assay: AKT phosphorylation (pSer473) in HUVEC cells (immunoprecipitation, Western blotting); format: cell-based, human; conditions: HUVEC cells with or without VEGF, increasing concentration of GA
Experimental: as §2, §3

[7] = test system: C57BL/6 mice; assay: Matrigel plug assay (VEGF dependent angiogenesis in vivo); conditions: VEGF 4 ng/ml, 7 days
Experimental: Matrigel (0.5 ml/plug) with no VEGF or GA, VEGF (4 ng/ml) but no GA, VEGF (4 ng/ml) and 0.1 μM GA or 0.2 μM GA in liquid form at 4° C., respectively, were injected subcutaneously in the midventral abdominal region of 5-6 week old C57BL/6 mice (five mice for each group). After 7 days, the mice were sacrificed and the plugs were removed. Each concentration had 4-5 Matrigel plugs. The Matrigel plugs were fixed with formalin and embedded with paraffin. The 5 μm sections were stained with H&E staining. The number of erythrocyte-filled blood vessels in the high power microscope field (HPF, 200×) was recorded (plug number=4-5, t-test, p<0.005).

For `CC(C)=CCC[C@]1(C)C=Cc2c(O)c3c(c(CC=C(C)C)c2O1)O[C@]12C(=C[C@@H]4C[C@H]1C(C)(C)O[C@@]2(C/C=C(/C)C(=O)O)C4=O)C3=O` [GA, gambogic acid], the Apoptotic population ([1]; GA 20 nM) was 11.6 ± 1.1 % of total, the Apoptotic population ([1]; GA 40 nM) was 14.4 ± 2.3 % of total and the Apoptotic population ([1]; GA 80 nM) was 40 % of total and 40 ± 3.6 % of total. For the same molecule, the Apoptotic population ([1]; GA 100 nM) was 57.6 ± 4.7 % of total, the Apoptotic population ([2]; GA 20 nM) was 1.6 ± 0.3 % of total and the Apoptotic population ([2]; GA 40 nM) was 2.9 ± 0.4 % of total. The Apoptotic population ([2]; GA 80 nM) was 4 % of total and 4.3 ± 0.5 % of total, the Apoptotic population ([2]; GA 100 nM) was 13.8 ± 3.6 % of total and the “Phosphorylation and activation of FAK” value [3] was “significantly inhibited the phosphorylation and activation”. For the same molecule, the “Tube formation ability of HUVECs” value ([4]; 100 nM GA) was “completely inhibited the tube-forming ability; also recorded: completely inhibited the tube formation ability”, the IC50 ([4]; 12-16 hours, read-out: Concentration that inhibited tube formation of HUVEC cells by 50%) was about 50 nM and the IC50 ([4]; as printed in the legend of FIG. 3, read-out: Concentration that inhibited 50% tube formation of HUVEC cells) was about 50 nM. For the same molecule, the “Apoptosis by cleaved caspase 3 and cleaved PARP” value [5] was “induces apoptosis; also recorded: strongly induced apoptosis”, the “Phosphorylation and activation of AKT (pSer473)” value [6] was “inhibited AKT phosphorylation and activation” and the “VEGF dependent angiogenesis in Matrigel plugs” value ([7]; 0.1 μM GA) was “inhibited VEGF dependent angiogenesis”. The “VEGF dependent angiogenesis in Matrigel plugs” value ([7]; 0.2 μM GA) was “totally abolished angiogenesis”.
